Legend:
KCNQ2/3 channels = biological target: T1, KCNQ2/3 channels (Homo sapiens, UniProt O43525+O43526); assay: Fluorescence assay using a voltage sensitive dye (fluorimetry); format: cell-based; conditions: for Emax: CHO-K1, CHO-K1 cells expressing KCNQ2/3 channels, read-out: Fluorimetry % efficacy (retigabine = 100%); for Emax / Fluorimetry % efficacy (retigabine = 100%): plateau effect relative to saturated Retigabine (50 µM) = 100%; for EC50 / Fluorimetry % efficacy (retigabine = 100%): CHO-K1 cells expressing KCNQ2/3 channels; for EC50: voltage-sensitive dye, KCl depolarization, read-out: Fluorimetry EC50 / IC50
T1 construct: expressed in transfected cells
Description: Method I. Fluorescence assay using a voltage sensitive dye (fluorimetry)
The modulation of the KCNQ opening state (and consequently the voltage potential of a cell) by test compounds such as compounds according to the present invention results in an increased or reduced amount of a voltage-sensitive dye in the cytoplasm of the cells tested. These voltage-sensitive dyes are fluorescent dyes and, therefore, are forming the link between cell potential influenced by KCNQ modulation and fluorescence intensity. A KCNQ agonist leads to an opening of the channel, potassium and dye efflux, a following hyperpolarization and a reduction of the inner fluorescence intensity in a kinetic protocol. If applying an ion jump by KCl depolarization, KCNQ agonists increase the ΔF/F value. An antagonist performs vice versa, respectively.
The 'fluorimetry EC50' is the half maximum effective concentration (EC50), where the concentration of a drug/compound induces a response halfway between the baseline and maximum plateau effect. In other words, said value represents the concentration of a compound, where 50% of its maximal effect in the fluorimetric assay is observed if the substance concentration is graphed against the corresponding ΔF/F values (for which the calculation method is described below). Therefore, 'fluorimetry EC50' is a measure for the compound potency. The compound efficacy is mirrored by 'fluorimetry % efficacy' ('%Efficacy') and refers to the maximum response achievable by the test compound, i.e. the plateau effect. This drug's plateau effect is related to the plateau effect, which can be achieved by applying a saturated concentration of a reference compound, e.g. Retigabine (50 µM), in independent wells of the same experimental plate or series. A compound showing 100% efficacy is as efficacious as the reference compound (Retigabine) with a saturated concentration.
[…] CHO-K1 cells expressing KCNQ2/3 channels are cultivated adherently at 37°C, 5% CO2 and 95% humidity in cell culture bottles (e.g. 80 cm^2 TC flasks, Nunc) with DMEM-high glucose (Sigma Aldrich, D7777) including 10% FCS (PAN Biotech, e.g. 3302-P270521) or alternatively MEM Alpha Medium (1x, liquid, Invitrogen, #22571), 10% fetal calf serum (FCS) (Invitrogen, #10270-106, heat-inactivated) and the necessary selection antibiotics.
Before being sown out for the measurements, the cells are washed with 1 x DPBS buffer Ca^2+/Mg^2+-free (e.g. Invitrogen, #14190-094) and detached from the bottom of the culture vessel by using Accutase (PAA Laboratories, #L11-007) (incubation with Accutase for 15 min at 37°C). The cell number is determined using a CASY™ cell counter (TCC, Schärfe System). Depending on the optimal density for each individual cell line, 20,000-30,000 cells/well/100 µl are seeded onto 96-well Corning™ CellBIND™ assay plates (Flat Clear Bottom Black Polystyrene Microplates, #3340). Freshly seeded cells are then left to settle for one hour at room temperature, followed by incubation for 24 hours at 37°C, 5% CO2 and 95% humidity.
The voltage-sensitive fluorescent dye from the Membrane Potential Assay Kit (Red™ Bulk format part R8123 for FLIPR, MDS Analytical Technologies™) is prepared by dissolving the contents of one vessel Membrane Potential Assay Kit Red Component A in 200 ml of extracellular buffer (ES buffer, 120 mM NaCl, 1 mM KCI, 10 mM HEPES, 2 mM CaCl2, 2 mM MgCl2, 10 mM glucose; pH 7.4). After removal of the nutrient medium, the cells are washed once with 200 µl of ES buffer, then loaded for 45 min at room temperature in 100 µl of dye solution in the dark.
Fluorescence measurements are carried out in a BMG Labtech FLUOstar™, BMG Labtech NOVOstar™ or BMG Labtech POLARstar™ instrument (525 nm excitation, 560 nm emission, Bottom Read mode). […]

[1] = system: withdrawal reflex of the rat tail (tail flick); assay: Low-intensity tail flick test (rat); format: in vivo, Male Sprague-Dawley rats; conditions: MPE [%] at dose 10 mg/kg, dose printed in brackets in the cell
Procedure: Method II. Low-intensity tail flick test (rat)
In the low-intensity tail flick test, the determination of the antinociceptive effect of the compounds according to the invention towards an acute noxious thermal stimulus is carried out by measuring the withdrawal reflex of the rat tail (tail flick) in response to a radiant heat beam (analgesia meter; model 2011 of the company Rhema Labortechnik, Hofheim, Germany) according to the method described by D'Amour and Smith (J. Pharm. Exp. Ther. 72, 74 79 (1941). To this end, the rats were placed in a plexiglas restrainer, and a low-intensity radiant heat beam (48°C) was focused onto the dorsal surface of the tail root. […] Before administration of a compound according to the invention, the animals were pre-tested twice in the course of five minutes and the mean of these measurements was calculated as the pre-test mean. The antinociceptive effect was determined at 20, 40 and 60 min after peroral compound administration. The antinociceptive effect was calculated based on the increase in the tail withdrawal latency according to the following formula and is expressed as percentage of the maximum possible effect (MPE [%]): MPE = [(T1−T0)/(T2−T0)]*100 [formula] […]

| SMILES | Emax (KCNQ2/3 channels) [%] | EC50 (KCNQ2/3 channels) [nM] | Low intensity tail flick, rat, peroral, ED50 or MPE (dose) [1] | Fluorimetry % efficacy (retigabine = 100%) (KCNQ2/3 channels) [%] |
| --- | --- | --- | --- | --- |
| Cc1cc(N2CCOCC2)nc(C2CC2)c1C(=O)NCCC(O)C(C)(C)C (single isomer, unassigned) [Example 1a, 2-cyclopropyl-N-(3-hydroxy-4,4-dimethyl-pentyl)-4-methyl-6-morpholin-4-yl-pyridine-3-carboxylic acid amide] | 242 | 961 |  |  |
| Cc1cc(N2CCOCC2)nc(C2CC2)c1C(=O)NCCC(O)C(C)(C)C (single isomer, unassigned) [Example 1b, 2-cyclopropyl-N-(3-hydroxy-4,4-dimethyl-pentyl)-4-methyl-6-morpholin-4-yl-pyridine-3-carboxylic acid amide] |  | 318 | 100 (10) % | 224 |
| Cc1cc(N2CCOCC2)nc(C(C)C)c1C(=O)NCCC(O)C(C)(C)C (single isomer, unassigned) [Example 5a, N-(3-hydroxy-4,4-dimethyl-pentyl)-2-isopropyl-4-methyl-6-morpholin-4-yl-pyridine-3-carboxylic acid amide] | 239 | 431 |  |  |
| Cc1cc(N2CCOCC2)nc(C(C)C)c1C(=O)NCCC(O)C(C)(C)C (single isomer, unassigned) [Example 5b, N-(3-hydroxy-4,4-dimethyl-pentyl)-2-isopropyl-4-methyl-6-morpholin-4-yl-pyridine-3-carboxylic acid amide] |  | 94 |  | 239 |
| Cc1cc(N2CCOCC2)nc(C(C)C)c1C(=O)NCCC(O)C(F)(F)F (single isomer, unassigned) [Example 6a, 2-Isopropyl-4-methyl-6-morpholin-4-yl-N-(4,4,4-trifluoro-3-hydroxy-butyl)-pyridine-3-carboxylic acid amide] |  | 1090 |  | 206 |
| Cc1cc(N2CCOCC2)nc(C(C)C)c1C(=O)NCCC(O)C(F)(F)F (single isomer, unassigned) [Example 6b, 2-Isopropyl-4-methyl-6-morpholin-4-yl-N-(4,4,4-trifluoro-3-hydroxy-butyl)-pyridine-3-carboxylic acid amide] |  | 3920 |  | 149 |
| Cc1cc(N2CCOCC2)nc(C2CC2)c1C(=O)NCCC(O)C(C)(C)C (stereo not shown) [Example 1, 2-Cyclopropyl-N-(3-hydroxy-4,4-dimethyl-pentyl)-4-methyl-6-morpholin-4-yl-pyridine-3-carboxylic acid amide] | 237 | 529 |  |  |
| Cc1cc(N2CCOCC2)nc(C2CC2)c1C(=O)NC[C@@H]1CCCC[C@H]1O [Example 2, 2-Cyclopropyl-N-[[(1S,2R)-2-hydroxy-cyclohexyl]-methyl]-4-methyl-6-morpholin-4-yl-pyridine-3-carboxylic acid amide] | 245 | 483 | 67 (10) % |  |
| Cc1cc(N2CCOCC2)nc(C2CC2)c1C(=O)NC[C@H]1CCCC[C@@H]1O [Example 3, 2-Cyclopropyl-N-[[(1R,2S)-2-hydroxy-cyclohexyl]-methyl]-4-methyl-6-morpholin-4-yl-pyridine-3-carboxylic acid amide] | 99 | 8550 |  |  |
| Cc1cc(N2CCOCC2)nc(C(C)C)c1C(=O)NCCC(O)C(C)(C)C (stereo not shown) [Example 5, N-(3-Hydroxy-4,4-dimethyl-pentyl)-2-isopropyl-4-methyl-6-morpholin-4-yl-pyridine-3-carboxylic acid amide] | 230 | 156 |  |  |
| Cc1cc(N2CCOCC2)nc(C(C)C)c1C(=O)NCCC(O)C(F)(F)F (stereo not shown) [Example 6, 2-Isopropyl-4-methyl-6-morpholin-4-yl-N-(4,4,4-trifluoro-3-hydroxy-butyl)-pyridine-3-carboxylic acid amide] | 150 | 1990 |  |  |
| Cc1cc(N2CCOCC2)nc(C(C)C)c1C(=O)NC[C@@H]1CCCC[C@H]1O [Example 7, N-[[(1S,2R)-2-Hydroxy-cyclohexyl]-methyl]-2-isopropyl-4-methyl-6-morpholin-4-yl-pyridine-3-carboxylic acid amide] | 243 | 185 |  |  |
| CCOc1nc(N2CCOCC2)cc(C)c1C(=O)NCCC(O)C(C)(C)C (stereo not shown) [Example 8, 2-Ethoxy-N-(3-hydroxy-4,4-dimethyl-pentyl)-4-methyl-6-morpholin-4-yl-pyridine-3-carboxylic acid amide] | 231 | 252 |  |  |

Source: patent EP2888233B1, “SUBSTITUTED 6-AMINO-NICOTINAMIDES BEARING AN OH-CONTAINING GROUP AS KCNQ2/3 MODULATORS” (Grünenthal GmbH, priority 2012, dated 2013)
